Assays:
duck salad = experiment: Test C flooded paddy test; format: in vivo, Heteranthera limosa; conditions: Flood
Procedure, shortened: (§1)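 Visual injury ratings against untreated controls, taken 13 to 15 days after compound was added to paddy water standing 3 cm above the soil.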

giant foxtail [1] = experiment: Test C pre-/postemergence test; format: in vivo, Setaria faberii
Procedure, shortened: (§2)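 Seeds were planted and treated preemergence with test chemical in a non-phytotoxic solvent mixture containing surfactant. Postemergence applications of the same formulation went onto plants 2 to 18 cm tall (1- to 4-leaf stage). A dash marks no test result.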

velvetleaf [2] = experiment: Test C pre-/postemergence test; format: in vivo, Abutilon theophrasti
Procedure, shortened: as §2

johnsongrass = experiment: Test C pre-/postemergence test; format: in vivo, Sorghum halepense
Procedure, shortened: as §2

Surinam grass = experiment: Test C pre-/postemergence test; format: in vivo, Brachiaria decumbens
Procedure, shortened: as §2

barnyardgrass = experiment: Test C flooded paddy test; format: in vivo, Echinochloa crus-galli; conditions: Flood
Procedure, shortened: as §1

common ragweed = experiment: Test C pre-/postemergence test; format: in vivo, Ambrosia elation
Procedure, shortened: as §2

redroot pigweed = experiment: Test A pre-/postemergence greenhouse test; format: in vivo, Amaranthus retroflexus; conditions: for Plant response rating, Pigweed: 0 to 100 scale where 0 is no effect and 100 is complete control; for Pigweed plant response rating: 0 to 100 scale
Procedure, shortened: (§3)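 Planting was into mixed loam soil and sand; preemergence treatment followed as a directed soil spray. Concurrently, emerged plants (one- to two-leaf, 2–10 cm) received postemergence applications of identically formulated compound (non-phytotoxic solvent, surfactant). After approximately ten days under greenhouse conditions, injury was judged by eye against untreated plants.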

bermudagrass = experiment: Test C pre-/postemergence test; format: in vivo, Cynodon dactylon
Procedure, shortened: as §2

wheat = experiment: Test A pre-/postemergence greenhouse test; format: in vivo, Triticum aestivum; conditions: for Plant response rating, Wheat: 0 to 100 scale where 0 is no effect and 100 is complete control; for Wheat plant response rating: 0 to 100 scale
Procedure, shortened: as §3

corn = experiment: Test A pre-/postemergence greenhouse test; format: in vivo, Zea mays; conditions: for Plant response rating, Corn: 0 to 100 scale where 0 is no effect and 100 is complete control; for Corn plant response rating: 0 to 100 scale
Procedure, shortened: as §3

wild oat = experiment: Test C pre-/postemergence test; format: in vivo, Avena fatua
Procedure, shortened: as §2

velvetleaf [3] = experiment: Test A pre-/postemergence greenhouse test; format: in vivo, Abutilon theophrasti; conditions: for Plant response rating, Velvetleaf: 0 to 100 scale where 0 is no effect and 100 is complete control; for Velvetleaf plant response rating: 0 to 100 scale
Procedure, shortened: as §3

eastern black nightshade = experiment: Test C pre-/postemergence test; format: in vivo, Solanum ptycanthum
Procedure, shortened: as §2

Goosegrass = experiment: Test C pre-/postemergence test; format: in vivo, Eleusin indica
Procedure, shortened: as §2

giant foxtail [4] = experiment: Test A pre-/postemergence greenhouse test; format: in vivo, Setaria faberi; conditions: for Plant response rating, Foxtail, Giant: 0 to 100 scale where 0 is no effect and 100 is complete control; for Foxtail, Giant plant response rating: 0 to 100 scale
Procedure, shortened: as §3

lambsquarters = experiment: Test C pre-/postemergence test; format: in vivo, Chenopodium album
Procedure, shortened: as §2

rice = experiment: Test C flooded paddy test; format: in vivo, Oryza sativa; conditions: Flood
Procedure, shortened: as §1

[5] = 31 g ai/ha, scale 0 to 100 (0 no effect, 100 complete control)
[6] = 62 g ai/ha, scale 0 to 100, 0 no effect, 100 complete control, 13 to 15 days
[7] = 125 g ai/ha, scale 0 to 100, 0 no effect, 100 complete control, 13 to 15 days
[8] = 250 g ai/ha, scale 0 to 100, 0 no effect, 100 complete control, 13 to 15 days
[9] = 62 g ai/ha, Preemergence, scale 0 to 100
[10] = 125 g ai/ha, preemergence, scale 0 (no effect) to 100 (complete control)
[11] = Preemergence, 31 g ai/ha, scale 0 to 100 (0 no effect, 100 complete control)
[12] = preemergence, 250 g ai/ha, scale 0 (no effect) to 100 (complete control)
[13] = Postemergence, 500 g ai/ha, 0 is no effect, 100 is complete control
[14] = Preemergence, 125 g ai/ha, 0 no effect, 100 complete control

## Cn1nc(C(F)(F)F)c(C[S+]([O-])c2ccc(F)c[n+]2[O-])c1Cl (stereo not drawn) [Compound 54]
Duck salad; [5]
  Plant response rating, Ducksalad: 0
Duck salad; [6]
  Plant response rating, Ducksalad: 0
Duck salad; [7]
  Plant response rating, Ducksalad: 0
Duck salad; [8]
  Plant response rating, Ducksalad: 85
Giant foxtail [1]; [9]
  Foxtail, Giant plant response rating: 98
Giant foxtail [1]; [10]
  Foxtail, Giant plant response rating: 100
Giant foxtail [1]; [11]
  Plant response rating, Foxtail, Giant: 85
Giant foxtail [1]; [12]
  Foxtail, Giant plant response rating: 100
Velvetleaf [2]; [9]
  Velvetleaf plant response rating: 0
Velvetleaf [2]; [10]
  Velvetleaf plant response rating: 5
Velvetleaf [2]; [11]
  Plant response rating, Velvetleaf: 0
Velvetleaf [2]; [12]
  Velvetleaf plant response rating: 85
johnsongrass; [9]
  Johnsongrass plant response rating: 95
johnsongrass; [10]
  Johnsongrass plant response rating: 100
johnsongrass; [11]
  Plant response rating, Johnsongrass: 90
johnsongrass; [12]
  Johnsongrass plant response rating: 100
Surinam grass; [9]
  Surinam Grass plant response rating: 90
Surinam grass; [10]
  Surinam Grass plant response rating: 100
Surinam grass; [11]
  Plant response rating, Surinam Grass: 55
Surinam grass; [12]
  Surinam Grass plant response rating: 100
barnyardgrass; [5]
  Plant response rating, Barnyardgrass: 0
barnyardgrass; [6]
  Plant response rating, Barnyardgrass: 20
barnyardgrass; [7]
  Plant response rating, Barnyardgrass: 65
barnyardgrass; [8]
  Plant response rating, Barnyardgrass: 80
Common ragweed; [9]
  Ragweed plant response rating: 0
Common ragweed; [10]
  Ragweed plant response rating: 5
Common ragweed; [11]
  Plant response rating, Ragweed: 0
Common ragweed; [12]
  Ragweed plant response rating: 10
Redroot pigweed; Postemergence, 125 g ai/ha
  Plant response rating, Pigweed: 40
Redroot pigweed; [13]
  Pigweed plant response rating: 60
Redroot pigweed; [14]
  Pigweed plant response rating: 90
Redroot pigweed; Preemergence, 500 g ai/ha
  Plant response rating, Pigweed: 100
bermudagrass; 62 g ai/ha, Preemergence, scale 0 to 100 (0 no effect, 100 complete control)
  Bermudagrass plant response rating: 100
bermudagrass; [10]
  Bermudagrass plant response rating: 100
bermudagrass; [11]
  Plant response rating, Bermudagrass: 98
bermudagrass; [12]
  Bermudagrass plant response rating: 100
wheat; Postemergence, 125 g ai/ha
  Plant response rating, Wheat: 30
wheat; [13]
  Wheat plant response rating: 50
wheat; [14]
  Wheat plant response rating: 10
wheat; Preemergence, 500 g ai/ha
  Plant response rating, Wheat: 70
corn; Postemergence, 125 g ai/ha
  Plant response rating, Corn: 0
corn; [13]
  Corn plant response rating: 60
corn; [14]
  Corn plant response rating: 20
corn; Preemergence, 500 g ai/ha
  Plant response rating, Corn: 70
Wild oat; [9]
  Oat, Wild plant response rating: 10
Wild oat; [10]
  Oat, Wild plant response rating: 30
Wild oat; [11]
  Plant response rating, Oat, Wild: 0
Wild oat; [12]
  Oat, Wild plant response rating: 40
Velvetleaf [3]; Postemergence, 125 g ai/ha
  Plant response rating, Velvetleaf: 10
Velvetleaf [3]; [13]
  Velvetleaf plant response rating: 70
Velvetleaf [3]; [14]
  Velvetleaf plant response rating: 30
Velvetleaf [3]; Preemergence, 500 g ai/ha
  Plant response rating, Velvetleaf: 70
Eastern black nightshade; [9]
  Nightshade plant response rating: 50
Eastern black nightshade; [10]
  Nightshade plant response rating: 85
Eastern black nightshade; [11]
  Plant response rating, Nightshade: 0
Eastern black nightshade; [12]
  Nightshade plant response rating: 85
Goosegrass; [9]
  Goosegrass plant response rating: 100
Goosegrass; [10]
  Goosegrass plant response rating: 100
Goosegrass; [11]
  Plant response rating, Goosegrass: 95
Goosegrass; [12]
  Goosegrass plant response rating: 100
Giant foxtail [4]; Postemergence, 125 g ai/ha
  Plant response rating, Foxtail, Giant: 60
Giant foxtail [4]; [13]
  Foxtail, Giant plant response rating: 80
Giant foxtail [4]; [14]
  Foxtail, Giant plant response rating: 80
Giant foxtail [4]; Preemergence, 500 g ai/ha
  Plant response rating, Foxtail, Giant: 90
lambsquarters; [9]
  Lambsquarters plant response rating: 90
lambsquarters; [10]
  Lambsquarters plant response rating: 100
lambsquarters; [11]
  Plant response rating, Lambsquarters: 0
lambsquarters; [12]
  Lambsquarters plant response rating: 100
rice; [5]
  Plant response rating, Rice: 0
rice; [6]
  Plant response rating, Rice: 0
rice; [7]
  Plant response rating, Rice: 15
rice; [8]
  Plant response rating, Rice: 40

Source: patent publication US20100298141A1, “SUBSTITUTED PYRIDINE N-OXIDE HERBICIDES” (E. I. DU PONT DE NEMOURS AND COMPANY, priority 2007, published 2010)
